In ChEMBL document CHEMBL5291721, “A preclinical secondary pharmacology resource illuminates target-adverse drug reaction associations of marketed drugs” (Nat Commun, 2023):

Tests used:
Adenosine receptor A2a = Adenosine receptor A2a (Homo sapiens, UniProt P29274)
[1] = target: T1, Muscarinic acetylcholine receptor M2 (Homo sapiens, UniProt P08172); type: functional, cell-based
T1 sequence (P08172 whole entry): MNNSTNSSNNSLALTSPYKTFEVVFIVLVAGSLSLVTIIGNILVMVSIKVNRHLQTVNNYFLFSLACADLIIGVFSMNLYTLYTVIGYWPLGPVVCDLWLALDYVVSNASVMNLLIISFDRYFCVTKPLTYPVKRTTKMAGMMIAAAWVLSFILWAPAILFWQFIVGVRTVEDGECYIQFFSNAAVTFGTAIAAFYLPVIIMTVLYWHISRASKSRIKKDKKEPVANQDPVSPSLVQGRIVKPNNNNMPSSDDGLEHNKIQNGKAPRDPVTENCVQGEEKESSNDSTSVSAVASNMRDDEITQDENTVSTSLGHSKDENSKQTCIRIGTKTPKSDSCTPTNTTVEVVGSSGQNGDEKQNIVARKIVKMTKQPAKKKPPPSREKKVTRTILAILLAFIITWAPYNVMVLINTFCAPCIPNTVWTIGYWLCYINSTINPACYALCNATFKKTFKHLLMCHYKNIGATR

[2] = target: Neuronal acetylcholine receptor subunit alpha-4 (Homo sapiens, UniProt P43681)
Cannabinoid receptor 1 = Cannabinoid receptor 1 (Homo sapiens, UniProt P21554); type: functional, cell-based
[3] = target: T2, 5-hydroxytryptamine receptor 1A (Homo sapiens, UniProt P08908); type: functional, cell-based
T2 sequence (P08908 whole entry): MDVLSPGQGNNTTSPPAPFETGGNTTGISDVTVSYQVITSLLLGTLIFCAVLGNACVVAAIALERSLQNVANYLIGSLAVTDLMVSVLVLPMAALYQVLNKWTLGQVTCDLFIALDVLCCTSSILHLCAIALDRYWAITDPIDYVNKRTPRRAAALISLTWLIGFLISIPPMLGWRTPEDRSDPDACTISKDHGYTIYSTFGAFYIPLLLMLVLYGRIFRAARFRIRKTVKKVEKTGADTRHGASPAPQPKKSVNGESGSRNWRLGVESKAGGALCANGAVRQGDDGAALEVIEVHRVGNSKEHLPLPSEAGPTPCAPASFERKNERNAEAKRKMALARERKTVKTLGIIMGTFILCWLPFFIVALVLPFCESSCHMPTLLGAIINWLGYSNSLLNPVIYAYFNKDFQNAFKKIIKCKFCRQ

Progesterone receptor = target: T3, Progesterone receptor (Homo sapiens, UniProt P06401); type: functional
T3 sequence (P06401 whole entry): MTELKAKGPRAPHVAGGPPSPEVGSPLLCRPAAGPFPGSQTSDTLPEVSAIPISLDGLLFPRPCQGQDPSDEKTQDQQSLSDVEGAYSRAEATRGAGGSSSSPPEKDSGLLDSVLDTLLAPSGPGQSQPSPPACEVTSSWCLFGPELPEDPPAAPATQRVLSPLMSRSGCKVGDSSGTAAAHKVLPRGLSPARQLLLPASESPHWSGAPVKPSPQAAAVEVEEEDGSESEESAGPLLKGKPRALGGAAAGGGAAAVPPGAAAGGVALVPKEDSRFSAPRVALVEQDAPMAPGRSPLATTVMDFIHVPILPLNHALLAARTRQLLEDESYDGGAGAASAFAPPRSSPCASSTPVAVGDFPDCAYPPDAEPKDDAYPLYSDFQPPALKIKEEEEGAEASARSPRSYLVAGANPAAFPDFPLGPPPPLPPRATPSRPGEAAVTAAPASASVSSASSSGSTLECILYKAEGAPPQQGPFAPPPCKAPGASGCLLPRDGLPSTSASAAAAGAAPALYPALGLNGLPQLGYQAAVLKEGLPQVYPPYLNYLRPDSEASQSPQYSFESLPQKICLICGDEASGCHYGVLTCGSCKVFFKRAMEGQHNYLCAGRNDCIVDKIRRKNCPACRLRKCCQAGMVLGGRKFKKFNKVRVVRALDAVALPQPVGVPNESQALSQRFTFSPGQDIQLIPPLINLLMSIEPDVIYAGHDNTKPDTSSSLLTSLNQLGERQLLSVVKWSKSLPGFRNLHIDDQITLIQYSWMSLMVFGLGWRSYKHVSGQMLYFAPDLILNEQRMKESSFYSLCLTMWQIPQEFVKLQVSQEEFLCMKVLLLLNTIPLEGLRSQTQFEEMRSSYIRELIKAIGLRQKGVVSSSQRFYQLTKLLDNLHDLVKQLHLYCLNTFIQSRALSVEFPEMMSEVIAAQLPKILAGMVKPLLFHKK

[4] = target: T4, Prostaglandin G/H synthase 1 (Rattus norvegicus, UniProt Q63921); type: functional
T4 sequence (Q63921 whole entry): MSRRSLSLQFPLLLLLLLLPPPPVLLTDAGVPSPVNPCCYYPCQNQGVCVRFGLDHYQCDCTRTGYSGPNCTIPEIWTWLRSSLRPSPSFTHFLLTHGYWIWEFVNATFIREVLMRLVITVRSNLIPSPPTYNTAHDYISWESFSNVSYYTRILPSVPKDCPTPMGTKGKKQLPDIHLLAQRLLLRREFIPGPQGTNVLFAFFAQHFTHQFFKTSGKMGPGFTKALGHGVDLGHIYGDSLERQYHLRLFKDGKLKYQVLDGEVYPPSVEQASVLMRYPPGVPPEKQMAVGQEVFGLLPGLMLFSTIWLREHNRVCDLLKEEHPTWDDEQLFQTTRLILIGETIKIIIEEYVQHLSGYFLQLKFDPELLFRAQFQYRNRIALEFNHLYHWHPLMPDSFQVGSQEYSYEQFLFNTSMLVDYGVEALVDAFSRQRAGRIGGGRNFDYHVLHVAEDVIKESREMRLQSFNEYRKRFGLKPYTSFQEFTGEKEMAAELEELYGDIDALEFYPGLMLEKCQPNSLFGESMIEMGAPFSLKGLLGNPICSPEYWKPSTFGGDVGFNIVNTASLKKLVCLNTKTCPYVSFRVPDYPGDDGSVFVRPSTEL

[5] = target: Beta-1 adrenergic receptor (Homo sapiens, UniProt P08588); type: functional
[6] = target: Beta-2 adrenergic receptor (Homo sapiens, UniProt P07550)
Further: assay procedure not described here.

Beta-1 adrenergic receptor, sequence (P08588 whole entry): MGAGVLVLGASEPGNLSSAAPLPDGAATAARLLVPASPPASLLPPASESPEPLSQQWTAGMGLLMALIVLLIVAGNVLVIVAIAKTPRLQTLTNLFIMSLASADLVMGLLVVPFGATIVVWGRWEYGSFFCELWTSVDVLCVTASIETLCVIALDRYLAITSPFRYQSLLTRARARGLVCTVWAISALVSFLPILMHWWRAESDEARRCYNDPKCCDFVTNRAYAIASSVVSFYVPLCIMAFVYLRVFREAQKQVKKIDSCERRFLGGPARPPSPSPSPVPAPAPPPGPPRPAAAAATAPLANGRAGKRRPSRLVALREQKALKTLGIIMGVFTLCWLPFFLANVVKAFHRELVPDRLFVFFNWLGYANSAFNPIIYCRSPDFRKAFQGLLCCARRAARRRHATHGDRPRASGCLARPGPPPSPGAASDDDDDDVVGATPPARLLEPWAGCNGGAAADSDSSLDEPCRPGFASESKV
Beta-2 adrenergic receptor, sequence (P07550 whole entry): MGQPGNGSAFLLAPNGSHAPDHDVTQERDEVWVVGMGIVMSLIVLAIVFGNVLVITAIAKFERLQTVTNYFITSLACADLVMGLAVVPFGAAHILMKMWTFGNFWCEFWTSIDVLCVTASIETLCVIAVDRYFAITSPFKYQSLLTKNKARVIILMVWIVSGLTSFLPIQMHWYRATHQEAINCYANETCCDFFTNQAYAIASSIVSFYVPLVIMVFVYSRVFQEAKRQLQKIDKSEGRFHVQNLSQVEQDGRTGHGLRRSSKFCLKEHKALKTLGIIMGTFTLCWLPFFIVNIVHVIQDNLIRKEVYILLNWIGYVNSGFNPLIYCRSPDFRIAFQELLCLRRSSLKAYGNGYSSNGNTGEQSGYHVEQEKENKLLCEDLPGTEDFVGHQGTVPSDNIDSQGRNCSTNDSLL
Cannabinoid receptor 1, sequence (P21554 whole entry): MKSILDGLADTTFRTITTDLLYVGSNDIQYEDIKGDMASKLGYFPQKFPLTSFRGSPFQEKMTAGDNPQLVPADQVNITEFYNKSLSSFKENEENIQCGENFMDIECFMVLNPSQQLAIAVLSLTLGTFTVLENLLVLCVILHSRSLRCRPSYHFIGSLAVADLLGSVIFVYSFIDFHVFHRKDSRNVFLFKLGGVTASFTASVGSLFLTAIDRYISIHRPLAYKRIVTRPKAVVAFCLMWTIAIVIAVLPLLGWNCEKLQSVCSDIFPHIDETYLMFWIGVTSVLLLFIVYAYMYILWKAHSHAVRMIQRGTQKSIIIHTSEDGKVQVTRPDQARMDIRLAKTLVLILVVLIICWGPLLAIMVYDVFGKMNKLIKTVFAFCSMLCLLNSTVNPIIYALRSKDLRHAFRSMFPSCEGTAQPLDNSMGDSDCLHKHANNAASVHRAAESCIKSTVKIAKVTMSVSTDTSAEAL
Adenosine receptor A2a, sequence (P29274 whole entry): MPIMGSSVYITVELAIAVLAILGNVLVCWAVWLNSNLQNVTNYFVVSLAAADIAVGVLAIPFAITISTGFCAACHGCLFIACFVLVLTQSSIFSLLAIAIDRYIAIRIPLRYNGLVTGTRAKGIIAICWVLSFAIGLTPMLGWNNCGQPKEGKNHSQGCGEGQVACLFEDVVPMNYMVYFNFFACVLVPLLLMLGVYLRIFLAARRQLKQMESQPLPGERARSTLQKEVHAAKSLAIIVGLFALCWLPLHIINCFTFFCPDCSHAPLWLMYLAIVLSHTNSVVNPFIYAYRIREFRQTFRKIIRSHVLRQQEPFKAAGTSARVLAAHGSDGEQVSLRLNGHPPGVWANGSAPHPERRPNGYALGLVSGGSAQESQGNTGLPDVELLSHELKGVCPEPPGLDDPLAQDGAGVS
Neuronal acetylcholine receptor subunit alpha-4, sequence (P43681 whole entry): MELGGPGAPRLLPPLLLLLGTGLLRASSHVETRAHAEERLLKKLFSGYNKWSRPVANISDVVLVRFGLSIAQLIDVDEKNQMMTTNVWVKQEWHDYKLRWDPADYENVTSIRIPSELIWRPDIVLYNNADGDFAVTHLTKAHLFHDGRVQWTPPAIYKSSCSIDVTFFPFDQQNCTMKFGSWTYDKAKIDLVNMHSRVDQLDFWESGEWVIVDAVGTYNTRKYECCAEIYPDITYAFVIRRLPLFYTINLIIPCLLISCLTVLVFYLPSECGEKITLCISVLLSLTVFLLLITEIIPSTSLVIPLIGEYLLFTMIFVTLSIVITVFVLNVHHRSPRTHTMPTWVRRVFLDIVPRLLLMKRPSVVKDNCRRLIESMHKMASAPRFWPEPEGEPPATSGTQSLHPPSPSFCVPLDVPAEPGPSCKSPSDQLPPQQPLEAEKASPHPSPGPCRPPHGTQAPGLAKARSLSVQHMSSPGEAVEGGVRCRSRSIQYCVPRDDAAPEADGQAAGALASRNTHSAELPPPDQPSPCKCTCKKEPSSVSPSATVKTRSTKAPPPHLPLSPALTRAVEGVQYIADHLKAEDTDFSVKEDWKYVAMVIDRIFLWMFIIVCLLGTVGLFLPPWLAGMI

Compound | AC50 (Adenosine receptor A2a) | AC50 [1] | AC50 [2] | AC50 (Cannabinoid receptor 1) | AC50 [3] | AC50 (Progesterone receptor) | AC50 [4] | AC50 [5] | AC50 [6]
CC(C)(C)NC[C@H](O)COc1nsnc1N1CCOCC1 [TIMOLOL] | > 30 µM | > 30 µM | > 30 µM | > 30 µM | 4.2 µM | > 30 µM | > 30 µM |  | 
[H]/N=C(/N)N[C@H]1[C@H](O)[C@@H](O)[C@H](O[C@@H]2O[C@@H](C)[C@](O)(C=O)[C@H]2O[C@@H]2O[C@@H](CO)[C@H](O)[C@@H](O)[C@@H]2NC)[C@@H](N/C(N)=N\[H])[C@@H]1O [STREPTOMYCIN] | > 30 µM | > 30 µM | > 30 µM | > 30 µM | > 10 µM | > 30 µM | > 30 µM | > 30 µM | > 30 µM
COc1ccc(/C=C/C(=O)Nc2ccccc2C(=O)O)cc1OC | > 30 µM | > 30 µM | > 30 µM |  | > 30 µM | > 30 µM | 7.4 µM | > 30 µM | > 30 µM
Nc1nc2c(c(=O)[nH]1)N(C=O)C(CNc1ccc(C(=O)N[C@@H](CCC(=O)O)C(=O)O)cc1)CN2 (stereo partly specified) [LEUCOVORIN] | > 30 µM | > 30 µM | > 30 µM | > 30 µM | > 30 µM | > 30 µM | > 30 µM | > 30 µM | > 30 µM
CS(=O)(=O)OCCCCOS(C)(=O)=O [BUSULFAN] | > 30 µM | > 30 µM | > 30 µM | > 30 µM | > 30 µM | > 30 µM | > 30 µM | > 30 µM | 
COc1cc2nccc(Oc3ccc(NC(=O)Nc4cc(C)on4)c(Cl)c3)c2cc1OC [TIVOZANIB] | > 3 µM | > 30 µM | > 3 µM |  |  | > 3 µM | > 3 µM |  | > 3 µM
COc1ccc(C(CN(C)C)C2(O)CCCCC2)cc1 (stereo unspecified) [VENLAFAXINE] | > 30 µM | > 10 µM | > 10 µM |  |  |  | > 30 µM | > 10 µM | > 10 µM
CC(C)(C)NCC(O)c1cc(Cl)c(N)c(Cl)c1 (stereo unspecified) [CLENBUTEROL] | > 30 µM | > 30 µM | > 30 µM | > 30 µM | > 30 µM | > 30 µM | > 30 µM | 0.112 µM | 
NCCCC(O)(P(=O)(O)O)P(=O)(O)O [ALENDRONIC ACID] | > 30 µM |  | > 10 µM |  | > 10 µM |  |  | > 10 µM | > 10 µM
CC(C)CC(N(C)C)C1(c2ccc(Cl)cc2)CCC1 (stereo unspecified) [SIBUTRAMINE] | > 30 µM | > 30 µM | > 10 µM | > 30 µM | > 10 µM |  | > 30 µM | > 10 µM | > 10 µM
Cc1cccc(N(C)C(=S)Oc2ccc3ccccc3c2)c1 [TOLNAFTATE] | > 10 µM | > 10 µM | > 10 µM |  | > 10 µM | > 30 µM | > 10 µM | > 10 µM | > 10 µM
CCCNC(C)C(=O)Nc1ccccc1C (stereo unspecified) [PRILOCAINE] | > 30 µM | > 10 µM | > 30 µM | > 30 µM | > 30 µM | 3.9 µM | > 30 µM | > 30 µM | 
Nc1ccc(C(=O)O)c(O)c1 [AMINOSALICYLIC ACID] | > 30 µM | > 30 µM | > 30 µM | > 30 µM |  | > 30 µM | > 30 µM | > 30 µM | 
COc1cccc2c1C(=O)c1c(O)c3c(c(O)c1C2=O)C[C@@](O)(C(C)=O)C[C@@H]3O[C@H]1C[C@H](N)[C@H](O)[C@H](C)O1 [DAUNORUBICIN] | 30 µM |  | 10.8 µM |  |  | > 3 µM | > 30 µM | 28 µM | > 30 µM
CCn1cc(C(=O)O)c(=O)c2cc(F)c(N3CCN(C)CC3)cc21 [PEFLOXACIN] | > 30 µM | > 30 µM |  | > 30 µM | > 30 µM | > 30 µM | > 30 µM | > 30 µM | 
CN1[C@@H]2CC[C@H]1C[C@@H](OC(=O)c1c[nH]c3ccccc13)C2 [TROPISETRON] | > 30 µM | > 30 µM | 5.2 µM | > 30 µM |  |  | > 30 µM | > 30 µM | 
COC1=C(OC)C(=O)C(CCCCCCCCCCO)=C(C)C1=O [IDEBENONE] | > 30 µM | > 10 µM | > 10 µM | > 30 µM | > 10 µM |  | > 30 µM | > 10 µM | > 10 µM
C[n+]1ccccc1/C=N/O [PRALIDOXIME] |  |  |  | > 30 µM | > 30 µM |  |  |  | 
C[C@@H]1C[C@H]2[C@@H]3C[C@H](F)C4=CC(=O)C=C[C@]4(C)[C@@]3(F)[C@@H](O)C[C@]2(C)[C@H]1C(=O)CO [DIFLUCORTOLONE] |  |  |  |  |  | > 0.03 µM | > 30 µM |  | 
CC(=O)OCC(CCn1cnc2cnc(N)nc21)COC(C)=O [FAMCICLOVIR] | > 30 µM | > 10 µM | > 10 µM | > 30 µM | > 10 µM |  | > 30 µM | > 10 µM | > 10 µM
C=CC1=C(C(=O)O)N2C(=O)[C@@H](NC(=O)/C(=N\OCC(=O)O)c3csc(N)n3)[C@H]2SC1 [CEFIXIME] | > 30 µM | > 30 µM | > 30 µM | > 30 µM |  | > 30 µM | > 30 µM | > 30 µM | 
CCCCCCNC(=O)n1cc(F)c(=O)[nH]c1=O [CARMOFUR] | > 30 µM | > 30 µM | > 30 µM |  | > 30 µM | > 30 µM | > 30 µM | > 30 µM | > 30 µM
